According to EP1613294B1, “PEPTIDES AND DERIVATIVES THEREOF AS INHIBITORS OF OXIDATIVE DAMAGE OF THE SKIN” (Bottega Verde S.r.l., priority 2003, dated 2004):
Peptide text beside a SMILES is read from it.

How the values were obtained:
[1] = Antioxidant activity, fluorimetric assay of R-Phicoerytrine (RPE) oxidation by AAPH-generated peroxyl radicals; format: biochemical; settings: substance at 25 µM; average ± S.D of 4 determination
Experimental: The amount of RPE oxidation is determined by fluorimetric analysis and the results are expressed as Trolox equivalents (reference compound).
(the hydrophilic analogue of vitamin E).
The values are the average ± S.D of 4 determination

[2] = HNE quenching activity in homogeneous phase (HNE consumption by HPLC); format: biochemical; settings: 200 µM HNE, 37°C, average ± S.D of 4 determinations; for RESIDUAL HNE (%) 1 hr of incubation: phosphate buffer 10 mM pH 7.4, 1 hr; for RESIDUAL HNE (%) 24 hrs of incubation: phosphate buffer 10 mM pH 7.4, 24 hrs
Excerpt: 4-hydroxy-trans-nonenal (HNE) was used throughout the study, as the prototype of α,β-unsaturated aldehydes since it represents the main oxidative degradation product of ω-6 polyunsaturated fatty acids, such as arachidonic and linoleic acids, and it is formed in large amount in the skin under different patho-physiological conditions, such as intrinsic and photo-induced skin aging [Tanaka N, Arch Dermatol Res, 293, 363-367, 2001].
A homogeneous phase model was first used to evaluate the ability of H-His-Tyr-OH and H-Tyr-His-OH to react and deactivate the cytotoxic agent HNE (quenching activity). In particular, the di-peptides were incubated at 37°C in a phosphate buffer, 10 mM pH 7.4, in the presence of 200 µM HNE. HNE consumption was determined after 1 hour and 24 hours of incubation by HPLC analysis, under the following experimental conditions: HP1050 (Hewlett Packard, Milano, Italy) equipped with a quaternary pump, self-sampling, on-line degasser, UV/VIS photodiode detector. The separations were performed by means of a Supelco LC18 column (25 cm x 4.6 mm i.d.; particle size 5 µm) and an isocratic elution system: 60% of phase A (H2O/CH3CN/HCOOH 90/1.0/0.] v/v/v) and 40% of phase B (H2O/CH3CN 10/90 v/v/v).
The values are expressed as the average ± S.D of 4 determinations.

[3] = tested on: keratinocytes (NCTC 2544 human cell line); assay: Cytoprotection of keratinocytes exposed to UVB and HNE (morphology, cell viability by calcein assay); format: cell-based; settings: for protective effect (morphological analyses and recovery in cell viability): added to incubation medium concomitant to HNE and UVB exposure, result in words
Experimental: The experimental model involves the exposure of the cellular mono-layer to the minimal UVB erythematal dose, MED=50 mJ/cm^2, (Vilber Lourmat VLX-3W radiometer equipped with a UVB probe at 312 nm)and, 4 hours of post-incubation, to the HNE insult (70 nmoles/mg protein).
The combination of physical (UVB) and chemical (HNE) stress is used to simulate the conditions of cellular damage of the skin during the cutaneous intrinsic and photo-induced aging process.

[4] = Copper (II) chelation by spectrophotometric analysis; format: physicochemical; settings: phosphate buffer (1 mM), 37°C, 1 mM copper sulphate (1:1 molar ratio); free copper (II) band at 800 nm disappears
Experimental: For this purpose, first we evaluated the ability of H-His-Tyr-OH and H-Tyr-His-OH to chelate copper (II) by spectro-photometric analysis. The peptides are dissolved in phosphate buffer (1 mM) and incubated at 37°C with 1 mM copper sulphate (1:1 molar ratio).

[5] = tested on: human kcratinocytcs cell line (NCTC 2544 human cell line); assay: Antioxidant cell protection of keratinocytes against AAPH-induced oxidative damage (MTT, morphology, lipid peroxidation with BODIPY 581/591); format: cell-based; settings: 6 hours exposure to 40 mM AAPH
Experimental: The H-His-Tyr-OH and H-Tyr-His-OH antioxidant activity was subsequently devaluated in a cellular model using human kcratinocytcs cell line (NCTC 2544 human cell line, Flow Laboratories, Irvine, UK), subjected to oxidative damage induced by a flux of peroxyl radicals generated by the radical initiator 2,2'-azobis([…]) dihydrochloride (AAPH). The following parameters were evaluated as markers of cellular damage: mitochondrial functionality as an index of cell viability (MTT assay), cellular morphology (phase contrast microscopic examinations), and lipid peroxidation, using 4,4-difluoro-5-(4-phenyl-1,3-butadienyl)-4-bora-3a,4a-diazo-s-indacene-3-undecanoic acid(BODIPY 581/591) as membrane fluorescent probe [Pap et al, FEBS Lett. 453:278-282, 1999]. A dramatic cytotoxic effect was observed after 6 hours exposure to 40 mM AAPH(fig.5).
The addition of H-His-Tyr-OH to the incubation medium causes a significant and dose-dependent cell protection, which is significant for all the parameters considered, already at 0.5 mM, with a total protection at 10 mM (fig. 5).

SMILES	TROLOX equivalent [1] [µM]	RESIDUAL HNE (%) 1 hr of incubation [2] [%]	RESIDUAL HNE (%) 24 hrs of incubation [2] [%]	protective effect (morphological analyses and recovery in cell viability) [3]	λmax of the absorption band of the peptide-copper(II) complex [4] [nm]	EC100 ([3]; Homo sapiens, NCTC-2544, light or radiation study, UVB 50 mJ/cm^2 + HNE 70 nmoles/mg protein, determined 6 hours after the addition of HNE, read-out: concentration at which cells are completely protected (morphological analysis)) [µM]	minimal effective concentration ([3]; Homo sapiens, NCTC-2544, light or radiation study, UVB 50 mJ/cm^2 + HNE 70 nmoles/mg protein, determined 6 hours after the addition of HNE, read-out: concentration at which the cytoprotective activity is already significant) [µM]	minimal effective concentration ([5]; mitochondrial functionality, morphology, lipid peroxidation, read-out: concentration at which cell protection is already significant for all the parameters considered) [µM]	EC100 ([5]; read-out: concentration giving total protection) [µM]
Cc1c(C)c2c(c(C)c1O)CCC(C)(C(=O)O)O2 (stereo not drawn) [Trolox, reference compound]	25	–	–	–	–	–	–	–	–
NC(Cc1ccc(O)cc1)C(=O)NC(Cc1cnc[nH]1)C(=O)O (stereo not drawn) [H-Tyr-His-OH] (H-Tyr-His-OH; configuration not given here)	17.28 ± 0.89	85.31 ± 6.29	20.02 ± 4.09	dose-dependent protective effect	600	–	–	–	–
NCCC(=O)N[C@@H](Cc1cnc[nH]1)C(=O)O [Carnosine, reference compound]	4.94 ± 0.3	–	–	–	–	–	–	–	–
NC(Cc1cnc[nH]1)C(=O)NC(Cc1ccc(O)cc1)C(=O)O (stereo not drawn) [H-His-Tyr-OH] (H-His-Tyr-OH; configuration not given here)	16.90 ± 0.54	80.16 ± 7.57	15.41 ± 0.49	dose-dependent protective effect	650	20000	2000	500	10000
N=C(N)NN [Amino guanidine, reference compound]	–	95.31 ± 0.08	72.04 ± 3.97	–	–	–	–	–	–
